Each structure is given as a SMILES string. Like-named read-outs stand apart in the source and are kept apart here.

The experiment concerns control recombinant tobacco. Briefly: Leaf piece chlorophyll test, control recombinant tobacco. In kind it is in vivo. Particulars: control recombinant tobacco; for activity at 0.3 ppm: Nicotiana tabacum, read-out: Resistant level to test compound. The procedure: Then, according to the method described in Manual for Gene Manipulation of Plant (by Hirofumi UCHIMIYA, Kodan-sha Scientific, 1992), the gene was introduced into tobacco. Agrobacterium strain bearing plasmid pBIBCH was cultured at 28° C. overnight in LB medium and then leaf pieces of tobacco cultured sterilely were dipped in the liquid culture medium. The leaf pieces were cultured at room temperature for 2 days in Murashige-Skoog medium (MS-medium, described in Murasige T. and Skoog F., Physiol. Plant. (1962) 15, p 473) containing 0.8% agar, 0.1 mg/liter naphthalene acetic acid and 1.0 mg/liter benzyl aminopurine. Then, the leaf pieces were washed with sterilized water and cultured for 7 days on MS medium containing 0.8% agar, 0.1 mg/liter naphthalene acetic acid, 1.0 mg/liter benzyl aminopurine and 500 μg/ml cefotaxime. The leaf pieces were transplanted onto MS medium containing 0.8% agar, 0.1 mg/liter naphthalene acetic acid, 1.0 mg/liter benzyl aminopurine, 500 μg/ml cefotaxime and 100 μg/ml kanamycin (hereinafter referred to as selective MS medium) and cultured on the medium continuously for 4months with transplanting the tobacco leaf pieces onto fresh selective MS medium every 1 month. During culture, stem-leaf differentiated shoots were appeared from the tobacco leaf pieces, these shoots were transplanted to MS medium containing 0.8% agar, 300 μg/ml cefotaxime and 50 μg/ml kanamycin to induce roots to obtain regenerated plants. The resultant regenerated plant was transplanted and cultured on MS medium 0.8% agar and 50 μg/ml kanamycin to obtain tobacco plant into which bchH gene was introduced. Similarly, tobacco leaf pieces were infected with Agrobacterium strain bearing pNO to obtain regenerated plant from the tobacco leaf pieces and tobacco plant (hereinafter referred to as control recombinant tobacco).
The tobacco leaves into which bchH gene was introduced and control recombinant tobacco leaves obtained in Example 5 were collected and each leaf was divided into the right and left equivalent pieces along the main vein, respectively. To one piece was applied an aqueous solution containing 0.3 ppm PPO inhibitory-type herbicidal compound of Structure 8, while, to the other piece was not applied the compound. These leaf pieces were placed on MS medium containing 0.8% agar and allowed to stand at room temperature for 7 days in light place. Then, each leaf piece was ground with pestle and mortar in 5 ml of 80% aqueous acetone solution to extract chlorophyll. The extract liquid was diluted with 80% aqueous acetone solution and the absorbance was measured at 750 nm, 663 nm and 645 nm to calculate total chlorophyll content according to the method described by Macknney G., J. Biol. Chem. (1941) 140, p 315. The results obtained from 4 clones of tobacco into which bchH gene was introduced (BCH1 to 4) and control recombinant tobacco is shown in Table 4. In the table, the resistant level to the herbicidal compound was represented by percentages of the total chlorophyll content of leaf pieces treated with herbicidal compound to that of untreated leaf pieces.
The tobacco clone into which bchH gene was introduced and control recombinant tobacco were also treated in the same manner with the solution containing PPO inhibitory-type herbicidal compound represented by the above Structure 3, 7, 10, 11, 13, 17, 23, 24, 25, 27, 28, 30 or 35, and the resistant level to each herbicidal compound was measured. In the table, the resistant levels to the herbicidal compound were represented by percentages of the total chlorophyll content of leaf pieces treated with the herbicidal compound to that of untreated leaf pieces.
The level of resistance to PPO inhibitory type herbicidal compound represented by Structure 8 was confirmed quantitatively by testing tobacco into which the gene encoding the variant soybean PPO prepared in Example 13 was introduced according to the same manner as in Example 6. […]

`C#CCOc1cc(N2C(=O)C3=C(CCCC3)C2=O)c(F)cc1Cl` [Structure 8]: the activity at 0.3 ppm reads like this: (168 h, 0.3 ppm, 7 days in light, chlorophyll of treated vs untreated leaf pieces, Table 4) 7.63%; (same manner as Example 6 (0.3 ppm), treated vs untreated leaf pieces, Table 8) 10%; (same manner as Example 6 (0.3 ppm), treated vs untreated leaf pieces, Table 10) 18.4%; (same manner as Example 6 (0.3 ppm), treated vs untreated leaf pieces, Table 12) 8.29%. The “Total chlorophyll content treated-leaf” value by setting is: (0.3 ppm, leaf pieces 7 days in light place, Table 4) 0.19 mg/g-fresh weight; (same manner as Example 6 (0.3 ppm, 7 days in light), Table 8) 0.35 mg/g-fresh weight; (same manner as Example 6 (0.3 ppm, 7 days in light), Table 10) 0.42 mg/g-fresh weight; (same manner as Example 6 (0.3 ppm, 7 days in light), Table 12) 0.160 mg/g-fresh weight. Further, the resistant level (2.0 ppm, 7 days in a light place, chlorophyll of treated vs untreated leaf pieces, Example 37) was 2.88%.
